Assay results taken from PubChem BioAssay AID624404 (Broad Institute, 2012).
Inconclusive results are not listed.

Each compound was assayed on D54 LucT luciferase reporter counterscreen, luminescence, 24 h (assay: luciferase activators in glycosylation-insensitive reporter cells, dose response, counter-screen for N-linked glycosylation inhibitor project, D54 LucT cells, luminescence, cherry pick (AID 624404)).

Compared with COC(=O)c1cn(C(=O)c2cccc3ccccc23)c2ccccc12, CSc1cccc(NC(=O)CCCOc2cc(=O)n(C)c3ccccc23)c1 is 16-fold higher in AC35: 284 nM for the first, 4530 nM for the second.

Going from NC(=O)CC(NC(=O)c1ccc(Br)cc1)c1ccc(N2CCCCCC2)c([N+](=O)[O-])c1 (centres undefined) to Cc1ccc(C(=O)N2CCC(C(=O)Nc3cccc([N+](=O)[O-])c3)CC2)cc1, the AC35 rises from 1090 nM to 1700 nM (1.6-fold).

Going from COc1ccc(OC)c(-c2cc(-c3cccnc3)nc(N)c2C#N)c1 to COc1ccc(OC)c(Nc2ncnc3c2cnn3-c2cccc(C)c2)c1, the AC35 rises from 227 nM to 4590 nM (20-fold).

Going from O=C(N/N=C/c1ccc(Cl)cc1)c1sccc1OCc1ccc(F)cc1 to CCN(CC)c1ccc(/C=N\NC(=O)c2cccc3cc[nH]c23)cc1, the AC35 rises from 514 nM to 1940 nM (3.8-fold).

Compared with CC1CN(C(=O)c2ccc(COc3ccc(C(C)C)cc3)o2)CC(C)O1 (centres undefined), Cc1ccc(C(=O)Nc2ccccc2C(=O)N2CC(C)OC(C)C2)cc1 (centres undefined) is higher in AC35: less than 1.2 nM for the first, 625 nM for the second.

O=C(NC1CCCC(C(F)(F)F)C1)c1ccc([N+](=O)[O-])o1 (centres undefined) and O=C(NC1CCCCCC1)c1c2c(nc3ccccc13)CCN(Cc1ccccc1)C2 are within 1.5-fold of each other in AC35: 3970 nM for the first, 3450 nM for the second.

First: O=S(=O)([N-]c1nc2ccccc2nc1-n1cc[n+](Cc2ccccc2)c1)c1ccccc1
Second: CC(Nc1nc(-c2ccccc2)nc2ccccc12)c1ccccc1 (centres undefined)
The AC35 of the first is 1.7-fold higher: 648 nM for the first, 379 nM for the second.

Going from C=CCn1c(SCc2c(C)noc2C)nc2sc3c(c2c1=O)CCC(C)C3 (centres undefined) to Cc1ccc(C)c(Cn2nnc3c(=O)[nH]c(C4CCN(C(=O)c5ccco5)CC4)nc32)c1, the AC35 rises from 238 nM to 852 nM (3.6-fold).

Going from Cc1ccc(NC2=NC3(CCCC3)N=C(N)N2)c(C)c1 to COc1ccc(NC2=C(C)C(=O)CC2)cc1, the AC35 falls from 7540 nM to 380 nM (20-fold).

Oc1ccc(C2=NNC(=NCc3ccc4c(c3)OCO4)SC2)c(O)c1 and Clc1ccc(CSc2cnnc3ccccc23)cc1Cl are within 1.5-fold of each other in AC35: 3120 nM for the first, 2090 nM for the second.

COc1cc2c(cc1OC)C(c1cccs1)N(C(=O)c1ccncc1)CC2 (centres undefined) and COc1cc(CN2CCc3ccccc3C2)ccc1O are within 1.5-fold of each other in AC35: 1700 nM for the first, 2000 nM for the second.

Going from COC(=O)/C=C1\C(=O)N(c2nc3ccccc3s2)C(=S)N1c1ccc(F)cc1 to Cc1nn(-c2ccccc2)c(Cl)c1/C=N/Nc1nc2ccccc2[nH]1, the AC35 rises from 14.9 nM to 23.5 nM (1.6-fold).

Going from Oc1ccc(Nc2nc(N3CCCC3)c3ccccc3n2)cc1 to Cn1c(=O)cc2c3c(c(N4CCCCC4)ccc31)C(=O)c1ccccc1-2, the AC35 rises from 150 nM to 1350 nM (9-fold).

Cn1c(=O)n(C)c2cc(NC(=O)CCl)ccc21 and COc1ccc(Cl)cc1S(=O)(=O)Nc1ccc2c(c1)n(C)c(=O)n2C are within 1.5-fold of each other in AC35: 707 nM for the first, 535 nM for the second.

Going from O=C(/C(=C\c1ccccc1)c1nc2ccccc2[nH]1)c1ccc(Cl)cc1 to O=C(N/N=C/c1ccco1)c1cc(-c2ccncc2)nc2ccccc12, the AC35 rises from 306 nM to 7160 nM (23-fold).

O=C(CNC(=O)c1ccc(Br)o1)Nc1cccc(-c2cnc3ccccc3n2)c1 and COc1cccc(CNC(=O)COC(=O)c2ccc(-c3ccc(O)cc3)cc2)c1 are within 1.5-fold of each other in AC35: 3530 nM for the first, 3650 nM for the second.

Compared with CC(=O)NC(=C(Cl)Cl)S(=O)(=O)c1ccccc1, CCn1c(=O)c2cc(C(=O)NCCCOC)sc2c2ccccc21 is 21-fold lower in AC35: 3670 nM for the first, 177 nM for the second.

Going from CCc1ccc(/C=N/NC(=O)c2nnn(-c3nonc3N)c2C(C)C)cc1 to CCN(CC)c1ccc(/C=N/NC(=O)c2cnccn2)cc1, the AC35 falls from 2630 nM to 53.7 nM (49-fold).

Going from COc1ccccc1NS(=O)(=O)c1ccc(-c2cc(C)no2)s1 to Cc1cc(NS(=O)(=O)c2ccc(NC(=O)COc3c(C)cc(Br)cc3C)cc2)no1, the AC35 falls from 18300 nM to 1660 nM (11-fold).

Compared with Cc1cccc(N2C(=O)N3[C@H](c4ccc(F)cc4)[C@@H]4C(=O)N(C5CCCCC5)C(=O)[C@@H]4[C@]3(Cc3ccccc3)C2=O)c1, Cc1ccc(S(=O)(=O)NC2=C(N3CCN(Cc4ccccc4)CC3)C(=O)c3ccccc3C2=O)cc1 is 4.7-fold higher in AC35: 541 nM for the first, 2540 nM for the second.

Going from CN1/C(=C/C=C(/C#N)C(N)=O)C(C)(C)c2ccccc21 to CC(C)n1c(/C=C/[C@H](O)C[C@H](O)CC(=O)O)c(-c2ccc(F)cc2)c2ccccc21, the AC35 rises from 7.24 nM to 370 nM (51-fold).

First: CCOc1ccc2[nH]c3c(N4CCc5ccccc5C4)ncnc3c2c1
Second: COc1cccc(OCc2nc3ncc(Br)cc3[nH]2)c1
The AC35 of the first is 1.7-fold higher: 4260 nM for the first, 2480 nM for the second.

Compared with COc1cccc(N2CCN(C(=O)c3[nH]c(C)c(C(C)=O)c3C)CC2)c1, COC(=O)c1ccc(C)c(NC(=O)CN(c2cc(OC)ccc2OC)S(C)(=O)=O)c1 is 22-fold lower in AC35: 4890 nM for the first, 226 nM for the second.

First: O=c1[nH]c(=O)n([C@H]2C[C@H](O)[C@@H](CO)O2)cc1I
Second: O=C1c2cccc3c([N+](=O)[O-])ccc(c23)C(=O)N1CC1CCCO1 (centres undefined)
The AC35 of the first is 13-fold higher: 4150 nM for the first, 315 nM for the second.

COc1cc2c(cc1OC)C(=O)N1[C@H]3c4cc(Cl)ccc4OC[C@@H]3[C@H](c3ccccc3)[C@]1(C)C(=O)N2 and Cc1ccc2c(c1)NC(=O)[C@@]1(C)[C@@H](c3ccccc3)[C@H]3COc4ccccc4[C@@H]3N1C2=O are within 1.5-fold of each other in AC35: 449 nM for the first, 371 nM for the second.

Going from O=C1NC(=O)N(Cc2ccco2)C(=O)/C1=C/C=C/c1ccco1 to O=C1c2ccccc2C(=O)N1Cc1cnc(N2CCN(c3ccccc3)CC2)s1, the AC35 falls from 12300 nM to 2890 nM (4.3-fold).

First: Cc1ccc(-n2nc(C)c(/C=N/NC(=O)c3cccs3)c2Cl)cc1
Second: Brc1ccc(C2=Nn3c(nnc3-c3n[nH]c4c3CCC4)SC2)cc1
The AC35 of the first is 7.1-fold lower: 55.6 nM for the first, 394 nM for the second.
